Reference: ChEMBL document CHEMBL6078713, “Synthesis and mechanistic studies of 4-aminoquinoline-Isatin molecular hybrids and Schiff's bases as promising antimicrobial agents” (Eur J Med Chem, 2025)
Converted amounts (≈) assume the structure as drawn. The source made the active and inactive calls. The rule behind the calls is not given here.

How the values were obtained:
Staphylococcus aureus [1] = assay: Antibacterial activity against Staphylococcus aureus MTCC 902 assessed as inhibition of bacterial growth at 200 ug/ml incubated overnight by spectrophotometry relative to control; format: functional
Staphylococcus aureus [2] = assay: Bactericidal activity against Staphylococcus aureus MTCC 902 assessed as inhibition of bacterial growth incubated overnight; format: functional
Salmonella typhi [3] = assay: Bactericidal activity against Salmonella typhi assessed as inhibition of bacterial growth incubated overnight; format: functional, Salmonella enterica subsp. enterica serovar Typhi; conditions: Salmonella enterica
Bacillus subtilis [4] = assay: Synergistic antibacterial activity against Bacillus subtilis MTCC 736 assessed as fractional inhibitory concentration index incubated overnight in presence of ciprofloxacin by microdilution checkerboard assay; format: functional
Pseudomonas aeruginosa [5] = assay: Antibacterial activity against Pseudomonas aeruginosa MTCC 2453 assessed as inhibition of bacterial growth at 200 ug/ml incubated overnight by spectrophotometry relative to control; format: functional
Bacillus subtilis [6] = assay: Antibacterial activity against Bacillus subtilis MTCC 736 assessed as diameter of zone of inhibition at 500 ug/ml by agar disk diffusion method; format: functional; conditions: read-out: DIZ
Pseudomonas aeruginosa [7] = assay: Antibacterial activity against Pseudomonas aeruginosa MTCC 2453 assessed as diameter of zone of inhibition at 2 times MIC incubated overnight by disk diffusion method; format: functional
Pseudomonas aeruginosa [8] = assay: Ratio of MBC for antibacterial activity against Pseudomonas aeruginosa MTCC 2453 to MIC for bactericidal activity against Pseudomonas aeruginosa MTCC 2453; format: functional
Bacillus subtilis [9] = assay: Antibacterial activity against Bacillus subtilis MTCC 736 assessed as inhibition of bacterial growth at 200 ug/ml incubated overnight by spectrophotometry relative to control; format: functional
Salmonella typhi [10] = assay: Antibacterial activity against Salmonella typhi assessed as inhibition of bacterial growth incubated overnight by serial dilution based spectrophotometer; format: functional, Salmonella enterica subsp. enterica serovar Typhi; conditions: Salmonella enterica
Escherichia coli [11] = assay: Bacteriostatic activity against Escherichia coli MTCC 443 assessed as reduction in bacterial growth at 2 times MIC measured upto 24 hrs by absorbance based assay; format: functional, organism-based
Enterococcus faecalis [12] = assay: Antibacterial activity against Enterococcus faecalis MTCC 439 assessed as inhibition of bacterial growth incubated overnight by serial dilution based spectrophotometer; format: functional
Salmonella typhi [13] = assay: Antibacterial activity against Salmonella typhi assessed as diameter of zone of inhibition at 0.5 times MIC incubated overnight by disk diffusion method; format: functional, Salmonella enterica subsp. enterica serovar Typhi
Enterococcus faecalis [14] = assay: Antibacterial activity against Enterococcus faecalis MTCC 439 assessed as inhibition of bacterial growth at 200 ug/ml incubated overnight by spectrophotometry relative to control; format: functional
Staphylococcus aureus [15] = assay: Bacteriostatic activity against Staphylococcus aureus MTCC 902 assessed as reduction in bacterial growth at 0.5 to 2 times MIC measured upto 24 hrs by absorbance based assay; format: functional, organism-based
Escherichia coli [16] = assay: Antibacterial activity against Escherichia coli clinical isolate ECJH1 assessed as diameter of zone of inhibition by disk diffusion assay; format: functional
Escherichia coli [17] = assay: Antibacterial activity against Escherichia coli clinical isolate ECJH22 assessed as diameter of zone of inhibition by disk diffusion assay; format: functional
Escherichia coli [18] = assay: Antibacterial activity against Escherichia coli clinical isolate ECJH25 assessed as diameter of zone of inhibition by disk diffusion assay; format: functional
Escherichia coli [19] = assay: Antibacterial activity against Escherichia coli clinical isolate ECJH23 assessed as diameter of zone of inhibition by disk diffusion assay; format: functional
Escherichia coli [20] = assay: Antibacterial activity against Escherichia coli clinical isolate ECJH15 assessed as diameter of zone of inhibition by disk diffusion assay; format: functional
Escherichia coli [21] = assay: Antibacterial activity against Escherichia coli clinical isolate ECJH18 assessed as diameter of zone of inhibition by disk diffusion assay; format: functional
Escherichia coli [22] = assay: Bacteriostatic activity against Escherichia coli MTCC 443 assessed as reduction in bacterial growth at 0.5 to 2 times MIC measured upto 24 hrs by absorbance based assay; format: functional, organism-based
Escherichia coli [23] = assay: Antibacterial activity against Escherichia coli clinical isolate ECJH8 assessed as diameter of zone of inhibition by disk diffusion assay; format: functional
Escherichia coli [24] = assay: Antibacterial activity against Escherichia coli clinical isolate ECJH4 assessed as diameter of zone of inhibition by disk diffusion assay; format: functional
Escherichia coli [25] = assay: Antibacterial activity against Escherichia coli clinical isolate ECJH5 assessed as diameter of zone of inhibition by disk diffusion assay; format: functional
Staphylococcus aureus [26] = assay: Antibacterial activity against Staphylococcus aureus MTCC 902 assessed as diameter of zone of inhibition at 0.5 times MIC incubated overnight by disk diffusion method; format: functional
Bacillus subtilis [27] = assay: Antibacterial activity against Bacillus subtilis MTCC 736 assessed as diameter of zone of inhibition at 0.5 times MIC incubated overnight by disk diffusion method; format: functional
Escherichia coli [28] = assay: Antibacterial activity against Escherichia coli clinical isolate ECJH3 assessed as diameter of zone of inhibition by disk diffusion assay; format: functional
Escherichia coli [29] = assay: Antibacterial activity against Escherichia coli clinical isolate ECJH9 assessed as diameter of zone of inhibition by disk diffusion assay; format: functional
[30] = Hemolytic activity in human RBC assessed as hemolysis at 1000 ug/ml incubated for 1 hr by absorbance based analysis; format: toxicity, cell-based, Erythrocyte; conditions: red blood cells (RBC), at 1000 µg/mL, read-out: Activity
Escherichia coli [31] = assay: Antibacterial activity against Escherichia coli clinical isolate ECJH20 assessed as diameter of zone of inhibition by disk diffusion assay; format: functional
Escherichia coli [32] = assay: Antibacterial activity against Escherichia coli clinical isolate ECJH16 assessed as diameter of zone of inhibition by disk diffusion assay; format: functional
Escherichia coli [33] = assay: Antibacterial activity against Escherichia coli clinical isolate ECJH13 assessed as diameter of zone of inhibition by disk diffusion assay; format: functional
Escherichia coli [34] = assay: Antibacterial activity against Escherichia coli clinical isolate ECJH21 assessed as diameter of zone of inhibition by disk diffusion assay; format: functional
Escherichia coli [35] = assay: Antibacterial activity against Escherichia coli clinical isolate ECJH24 assessed as diameter of zone of inhibition by disk diffusion assay; format: functional
Escherichia coli [36] = assay: Antibacterial activity against Escherichia coli clinical isolate ECJH6 assessed as diameter of zone of inhibition by disk diffusion assay; format: functional
Escherichia coli [37] = assay: Antibacterial activity against Escherichia coli clinical isolate ECJH11 assessed as diameter of zone of inhibition by disk diffusion assay; format: functional
Pseudomonas aeruginosa [38] = assay: Antibacterial activity against Pseudomonas aeruginosa MTCC 2453 assessed as diameter of zone of inhibition at 0.5 times MIC incubated overnight by disk diffusion method; format: functional
Escherichia coli [39] = assay: Antibacterial activity against Escherichia coli clinical isolate ECJH14 assessed as diameter of zone of inhibition by disk diffusion assay; format: functional
Escherichia coli [40] = assay: Antibacterial activity against Escherichia coli clinical isolate ECJH10 assessed as diameter of zone of inhibition by disk diffusion assay; format: functional
Escherichia coli [41] = assay: Antibacterial activity against Escherichia coli clinical isolate ECJH19 assessed as diameter of zone of inhibition by disk diffusion assay; format: functional
[42] = Hemolytic activity in human RBC assessed as hemolysis upto 500 ug/ml incubated for 1 hr by absorbance based analysis; format: toxicity, cell-based, Erythrocyte; conditions: red blood cells (RBC), up to 500 µg/mL, read-out: Activity
Escherichia coli [43] = assay: Antibacterial activity against Escherichia coli clinical isolate ECJH17 assessed as diameter of zone of inhibition by disk diffusion assay; format: functional
Escherichia coli [44] = assay: Antibacterial activity against Escherichia coli clinical isolate ECJH12 assessed as diameter of zone of inhibition by disk diffusion assay; format: functional
Escherichia coli [45] = assay: Antibacterial activity against Escherichia coli clinical isolate ECJH7 assessed as diameter of zone of inhibition by disk diffusion assay; format: functional

## Clc1ccc2c(NCC/N=C/c3ccc4ccccc4n3)ccnc2c1
Staphylococcus aureus [1]
  inhibition at 200 µg/mL: 100%
Staphylococcus aureus [2]
  MBC: 512 µg/mL (≈ 1420 µM)
Salmonella typhi [3]
  MBC: 128 µg/mL (≈ 355 µM)
Bacillus subtilis [4]
  fractional inhibitory concentration index (FICI): 1.25
Pseudomonas aeruginosa [5]
  inhibition at 200 µg/mL: 100%
Bacillus subtilis [6]
  zone of inhibition at 500 µg/mL: 10 mm
Pseudomonas aeruginosa [7]
  diameter of the inhibition zone (DIZ): 8 mm
Pseudomonas aeruginosa [8]
  Ratio: 2
Bacillus subtilis [9]
  inhibition at 200 µg/mL: 100%
Salmonella typhi [10]
  MIC: 128 µg/mL (≈ 355 µM)
Escherichia coli [11]
  Activity: Active
Enterococcus faecalis [12]
  MIC: 256 µg/mL (≈ 709 µM)
Salmonella typhi [13]
  diameter of the inhibition zone (DIZ): 9 mm
Enterococcus faecalis [14]
  inhibition at 200 µg/mL: 100%

## O=[N+]([O-])c1ccccc1/C=N/CCNc1ccnc2cc(Cl)ccc12
Staphylococcus aureus [15]
  Activity: Active
Escherichia coli [16]
  diameter of the inhibition zone (DIZ): 11 mm
Escherichia coli [17]
  diameter of the inhibition zone (DIZ): 9 mm
Escherichia coli [18]
  diameter of the inhibition zone (DIZ): 11 mm
Escherichia coli [19]
  diameter of the inhibition zone (DIZ): 11 mm
Escherichia coli [20]
  diameter of the inhibition zone (DIZ): 11 mm
Escherichia coli [21]
  diameter of the inhibition zone (DIZ): 11 mm
Escherichia coli [22]
  Activity: Active
Escherichia coli [23]
  diameter of the inhibition zone (DIZ): 9 mm
Staphylococcus aureus [2]
  MBC: 256 µg/mL (≈ 722 µM)
Escherichia coli [24]
  diameter of the inhibition zone (DIZ): 13 mm
Escherichia coli [25]
  diameter of the inhibition zone (DIZ): 12 mm
Staphylococcus aureus [26]
  diameter of the inhibition zone (DIZ): 8 mm
Bacillus subtilis [27]
  diameter of the inhibition zone (DIZ): 8 mm
Escherichia coli [28]
  diameter of the inhibition zone (DIZ): 10 mm
Escherichia coli [29]
  diameter of the inhibition zone (DIZ): 10 mm
[30]
  hemolysis at 1 h, 1000 ug/ml: < 20%
Salmonella typhi [3]
  MBC: 64 µg/mL (≈ 180 µM)
Escherichia coli [31]
  diameter of the inhibition zone (DIZ): 10 mm
Escherichia coli [32]
  diameter of the inhibition zone (DIZ): 10 mm
Bacillus subtilis [4]
  fractional inhibitory concentration index (FICI): 0.5
Escherichia coli [33]
  diameter of the inhibition zone (DIZ): 11 mm
Escherichia coli [34]
  diameter of the inhibition zone (DIZ): 8 mm
Bacillus subtilis [6]
  zone of inhibition at 500 µg/mL: 12 mm
Escherichia coli [35]
  diameter of the inhibition zone (DIZ): 13 mm
Escherichia coli [36]
  diameter of the inhibition zone (DIZ): 10 mm
Escherichia coli [37]
  diameter of the inhibition zone (DIZ): 11 mm
Pseudomonas aeruginosa [7]
  diameter of the inhibition zone (DIZ): 11 mm
Pseudomonas aeruginosa [8]
  Ratio: 1
Pseudomonas aeruginosa [38]
  diameter of the inhibition zone (DIZ): 7 mm
Escherichia coli [39]
  diameter of the inhibition zone (DIZ): 12 mm
Escherichia coli [40]
  diameter of the inhibition zone (DIZ): 11 mm
Escherichia coli [41]
  diameter of the inhibition zone (DIZ): 10 mm
Salmonella typhi [10]
  MIC: 64 µg/mL (≈ 180 µM)
Escherichia coli [11]
  Activity: Active
Enterococcus faecalis [12]
  MIC: 128 µg/mL (≈ 361 µM)
[42]
  hemolysis at 1 h: < 10%
Salmonella typhi [13]
  diameter of the inhibition zone (DIZ): 6 mm
Escherichia coli [43]
  diameter of the inhibition zone (DIZ): 8 mm
Escherichia coli [44]
  diameter of the inhibition zone (DIZ): 12 mm
Escherichia coli [45]
  diameter of the inhibition zone (DIZ): 10 mm
